Assay results reported in ChEMBL document CHEMBL1221242, “Design and synthesis of HCV agents with sequential triple inhibitory potentials” (2010).

How the values were obtained:
Hepatitis C virus [1] = experiment: Antiviral activity against HCV infected in human BB7 cells assessed as inhibition of viral replication after 3 days relative to HCV-796; assay type: functional, Hepacivirus hominis
Hepatitis C virus [2] = experiment: Inhibition of HCV 1b NS5B Cdelta21 polymerase expressed in Escherichia coli assessed as inhibition of [alpha-33P]GTP incorporation into RNA relative to HCV-796; design: species or system Hepatitis C virus subtype 1b
Hepacivirus hominis = experiment: Ratio of inhibition of HCV 1b NS5B Cdelta21 polymerase to inhibition of HCV relative to HCV-796

| SMILES | Ratio (Hepatitis C virus [1]) | Ratio (Hepatitis C virus [2]) | Ratio (Hepacivirus hominis) |
| --- | --- | --- | --- |
| CNC(=O)c1c(-c2ccc(F)cc2)oc2cc(N(CCOP(=O)(O)OC[C@H]3O[C@@H](n4cnc(C(N)=O)n4)[C@H](O)[C@@H]3O)S(C)(=O)=O)c(C3CC3)cc12 | 7.3 | 6.2 | 1.18 |
| CNC(=O)c1c(-c2ccc(F)cc2)oc2cc(N(CCOP(=O)(O)OC[C@H]3O[C@@H](n4cnc(C(N)=O)n4)[C@@H]4OC(C)(C)O[C@@H]43)S(C)(=O)=O)c(C3CC3)cc12 | 18.6 | 11.8 | 1.57 |
| CNC(=O)c1c(-c2ccc(F)cc2)oc2cc(N(CCOC(=O)CCC(=O)OC[C@H]3O[C@@H](n4cnc(C(N)=O)n4)[C@H](O)[C@@H]3O)S(C)(=O)=O)c(C3CC3)cc12 | 6.2 | 22 | 0.28 |
| CNC(=O)c1c(-c2ccc(F)cc2)oc2cc(N(CCOC(=O)CCC(=O)OC[C@H]3O[C@@H](n4cnc(C(N)=O)n4)[C@@H]4OC(C)(C)O[C@@H]43)S(C)(=O)=O)c(C3CC3)cc12 | 13 | 42 | 0.31 |
| CNC(=O)c1c(-c2ccc(F)cc2)oc2cc(N(CCOP(=O)(O)O)S(C)(=O)=O)c(C3CC3)cc12 | 8.9 | 0.4 | 22.2 |
| CNC(=O)c1c(-c2ccc(F)cc2)oc2cc(N(CCO)S(C)(=O)=O)c(C3CC3)cc12 [NESBUVIR] | 1 | 1 | 1 |
